This is an account of results in paper PMC3781598 (Pharmaceutical research, 2013).

The target in data set [1] is T1, human CYP2A13 (Homo sapiens, UniProt Q16696).
T1 sequence (Q16696 25-494): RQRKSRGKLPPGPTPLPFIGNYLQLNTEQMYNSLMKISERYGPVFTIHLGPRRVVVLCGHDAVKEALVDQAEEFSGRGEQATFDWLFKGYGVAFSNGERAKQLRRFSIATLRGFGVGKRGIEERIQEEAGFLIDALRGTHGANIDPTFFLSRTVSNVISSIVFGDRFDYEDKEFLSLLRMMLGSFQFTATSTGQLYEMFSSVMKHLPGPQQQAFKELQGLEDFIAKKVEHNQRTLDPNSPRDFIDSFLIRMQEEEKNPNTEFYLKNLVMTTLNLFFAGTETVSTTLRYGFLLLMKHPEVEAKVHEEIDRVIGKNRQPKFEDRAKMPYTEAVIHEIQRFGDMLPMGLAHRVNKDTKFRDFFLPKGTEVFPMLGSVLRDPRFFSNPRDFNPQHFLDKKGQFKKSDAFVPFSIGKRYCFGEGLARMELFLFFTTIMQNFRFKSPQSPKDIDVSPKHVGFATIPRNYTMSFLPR
The data set can be described thus: Spectral ligand binding assay. The note with it: for Kd: Kd 2A13, spectral titration, ≥ = minimal Kd value; for Spectral shift type 2A13: UV/Vis difference spectra.

For data set [2], the system named is CYP2A6 / CYP2A13. The data set can be described thus: Spectral ligand binding assay. Set-up: species or system human. The note with it: human, Selectivity Kd (2A6)/ Kd (2A13), ratio of the CYP2A6 value to the CYP2A13 value.
Data set [3] concerns human CYP2A13. The data set can be described thus: Spectral ligand binding assay. The following applies: ratio of the CYP2A6 value to the CYP2A13 value.
In data set [4] the target is T2, human CYP2A6 (Homo sapiens, UniProt P11509).
T2 sequence (P11509 with tags, fused parts or gaps limits assumed): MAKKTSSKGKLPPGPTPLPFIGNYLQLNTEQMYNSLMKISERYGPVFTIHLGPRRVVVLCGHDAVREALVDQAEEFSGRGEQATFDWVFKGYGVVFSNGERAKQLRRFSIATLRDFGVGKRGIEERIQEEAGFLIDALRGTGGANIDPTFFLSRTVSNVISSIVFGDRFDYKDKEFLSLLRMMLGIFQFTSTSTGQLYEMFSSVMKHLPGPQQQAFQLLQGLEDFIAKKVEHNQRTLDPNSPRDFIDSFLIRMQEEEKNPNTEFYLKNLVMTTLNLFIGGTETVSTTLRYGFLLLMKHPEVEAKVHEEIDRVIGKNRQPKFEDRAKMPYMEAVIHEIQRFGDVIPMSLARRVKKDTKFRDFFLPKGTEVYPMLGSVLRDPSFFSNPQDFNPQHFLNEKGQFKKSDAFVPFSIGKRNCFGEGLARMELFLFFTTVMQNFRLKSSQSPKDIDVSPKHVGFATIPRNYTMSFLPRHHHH
Put plainly: Coumarin metabolism assay.

Data set [5] addresses T2, human CYP2A6. Put plainly: Spectral ligand binding assay. The following applies: for Kd: Kd 2A6, spectral titration, ≥ = minimal Kd value; for Spectral shift type 2A6: UV/Vis difference spectra.
In data set [6] the test system is CYP2A6 / CYP2A13. The data set can be described thus: Coumarin metabolism assay. The following applies: human, pH 7.4, probe coumarin (7-hydroxylation), Selectivity Ki (2A6)/ Ki (2A13), ratio of the CYP2A6 value to the CYP2A13 value.
The target in data set [7] is T3, human CYP2A13 (Homo sapiens, UniProt Q16696).
T3 sequence (Q16696 with tags, fused parts or gaps limits assumed): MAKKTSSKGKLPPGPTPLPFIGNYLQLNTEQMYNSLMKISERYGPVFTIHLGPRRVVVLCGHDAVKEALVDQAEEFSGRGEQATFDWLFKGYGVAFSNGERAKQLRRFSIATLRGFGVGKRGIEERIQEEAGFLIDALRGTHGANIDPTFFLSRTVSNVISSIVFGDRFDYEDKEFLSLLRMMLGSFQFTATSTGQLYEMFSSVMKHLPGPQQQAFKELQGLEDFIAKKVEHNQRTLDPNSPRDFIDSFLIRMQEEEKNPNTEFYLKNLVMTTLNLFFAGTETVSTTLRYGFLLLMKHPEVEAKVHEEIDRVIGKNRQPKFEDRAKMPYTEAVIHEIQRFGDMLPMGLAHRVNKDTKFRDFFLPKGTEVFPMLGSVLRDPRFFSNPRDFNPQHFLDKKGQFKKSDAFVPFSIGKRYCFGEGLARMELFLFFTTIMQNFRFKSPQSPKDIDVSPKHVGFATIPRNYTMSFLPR
The data set can be described thus: Coumarin metabolism assay.

Data set [8] has as its system human CYP2A13. Put plainly: Coumarin metabolism assay. The note with it: ratio of the CYP2A6 value to the CYP2A13 value.
For another data set, the system named is NNK-induced tumors. The following applies: rats; reduced from 70% without inhibitor; cited from earlier work.

In the case of `Cc1cccc(Cl)c1CN1CCOCC1` [Compound 9, 4-(2-chloro-6-methylbenzyl)morpholine], the Kd on human CYP2A13 [1] stood at 1.1 µM; at human CYP2A6 [5], 515 µM. Further, the “Spectral shift type 2A13” value on human CYP2A13 [1] is listed as “I”. For the same compound, the selectivity ratio in the data set on CYP2A6 / CYP2A13 [2] is above 400. Besides, the “Selectivity Kd (2A6)/ Kd (2A13)” value in the data set on human CYP2A13 [3] is 468. Moreover, the Ki at human CYP2A6 [4] is 296 µM; on human CYP2A13 [7], 19.7 ± 1.2 µM. The “Spectral shift type 2A6” value at human CYP2A6 [5] was “I”. Moreover, the selectivity ratio at 10 min in the data set with CYP2A6 / CYP2A13 [6] was determined as 15.

On to `Clc1cccc(CN2CCOCC2)c1Cl` [Compound 12, 4-(2,3-dichlorobenzyl)morpholine], for which, at human CYP2A13 [1], the Kd was found to be 30.8 ± 8.1 µM and the “Spectral shift type 2A13” value is “I”. In addition, in the data set with CYP2A6 / CYP2A13 [2], the selectivity ratio was at least 9.9. This compound also came in with a Ki on human CYP2A6 [4] of 836 µM. For the same compound, on human CYP2A6 [5], the Kd was at least 305 µM and the “Spectral shift type 2A6” value is on record as “I”. The selectivity ratio at 10 min in the data set on CYP2A6 / CYP2A13 [6] is around 9. For the same compound, in the data set with human CYP2A13 [8], the “Selectivity Ki (2A6)/ Ki (2A13)” value was determined as 9.4. The compound further came in with a Ki on human CYP2A13 [7] of 88.9 µM.

Turning to `Clc1ccc(CN2CCOCC2)c(Cl)c1` [Compound 13, 4-(2,4-dichlorobenzyl)morpholine], the dissociation constant (Kd) at human CYP2A13 [1] is 34.2 µM; on human CYP2A6 [5], at least 198 µM. Further, the “Spectral shift type 2A13” value on human CYP2A13 [1] was “I”. Further, in the data set on CYP2A6 / CYP2A13 [2], the selectivity ratio was at least 5.8. Moreover, the inhibition constant Ki on human CYP2A6 [4] turned out to be 995 µM; at human CYP2A13 [7], 113 ± 14 µM. The “Spectral shift type 2A6” value on human CYP2A6 [5] is recorded as “I”. Also, in the data set with CYP2A6 / CYP2A13 [6], the selectivity ratio at 10 min is around 9. In the data set with human CYP2A13 [8], the “Selectivity Ki (2A6)/ Ki (2A13)” value is reported as 8.9.

In the case of `Clc1ccccc1CN1CCSCC1` [Compound 18, 4-(2-chlorobenzyl)thiomorpholine], on human CYP2A13 [1], the Kd stood at 8.3 ± 4.1 µM and the “Spectral shift type 2A13” value is “I”. The selectivity ratio in the data set on CYP2A6 / CYP2A13 [2] was 18. The “Selectivity Kd (2A6)/ Kd (2A13)” value in the data set with human CYP2A13 [3] was 18.6. In addition, the inhibition constant Ki at human CYP2A6 [4] turned out to be 483 µM. The “Mode of inhibition 2A6” value on human CYP2A6 [4] (coumarin substrate) is given as “mixed inhibition”. The “α (mixed inhibition) 2A6” value at human CYP2A6 [4] (coumarin substrate, mixed model inhibition) was found to be 3.1. The selectivity ratio at 10 min in the data set on CYP2A6 / CYP2A13 [6] came out at 8. In the data set on human CYP2A13 [8], the “Selectivity Ki (2A6)/ Ki (2A13)” value worked out at 8.2. In addition, the inhibition constant Ki at human CYP2A13 [7] was found to be 59 µM.

Take `CC(c1ccccc1Cl)N1CCOCC1` (stereo not shown) [Compound 23, 4-(1-(2-chlorophenyl)ethyl)morpholine]: at human CYP2A13 [1], binding was characterised by a dissociation constant (Kd) of 7.6 ± 2.8 µM and the “Spectral shift type 2A13” value is listed as “I”. Further, the selectivity ratio with CYP2A6 / CYP2A13 [2] is at least 70.8. The compound further gave a Ki at human CYP2A6 [4] of 98.5 µM. Further, on human CYP2A6 [5], the Kd was at least 538 µM and the “Spectral shift type 2A6” value is recorded as “I”. Also, in the data set with CYP2A6 / CYP2A13 [6], the selectivity ratio at 10 min came out at 6.2. Besides, the Ki on human CYP2A13 [7] is 15.9 µM.

As for `S=C=NCCc1ccccc1` [PEITC, phenethyl isothiocyanate], in the data set on NNK-induced tumors, the NNK-induced tumors is listed as 5%.

The term Kd denotes the free concentration of one partner at which half of the binding sites on the other are occupied at equilibrium, for simple one-to-one binding. The low end stands for higher affinity, the high end for lower affinity. Usually Ki stands for the equilibrium dissociation constant of an inhibitor or competing ligand from its target. High values mean weaker binding, low ones tighter binding.
